Measured values reported in patent publication EP4685144A1, “NON-FLUORESCENT COMPOUND AND USES THEREOF” (SFC Co., Ltd., priority 2023, dated 2024).

Experiments:
[1] = Photophysical properties of the non-fluorescent compounds in DMSO solvent; assay type: physicochemical; design: εmax: unit not given here; conditions: for Quantum Yield(Φ) / εmax / λabs: DMSO solvent
Description: The photophysical properties measured in DMSO solvent for the non-fluorescent compounds synthesized according to the above synthesis examples are shown in Table 1 below.

[2] = commercially available quencher; cited from earlier work

Row | Structure (SMILES) | Quantum Yield(Φ) [1] | εmax [1] | λabs [1] [nm] | maximum absorption wavelength [1] | absorbs light in the range [2]
1 | CCn1c(=CC=CC2=[N+](CCCC(=O)O)c3c(ccc4c3c3ccccc3n4C)C2(C)C)c2cccc3cccc1c32 [Dye 17] | 0.002 | 37,000 | 672 | above 650 nm | 
2 | CCN(CC)c1ccc2nc3ccc(/N=N/c4ccc(N(C)CCCC(=O)O)cc4)cc3[n+](-c3ccccc3)c2c1 [BHQ-3] |  |  |  |  | 650-700 nm
3 | Cn1c(=CC=CC2=[N+](CCCCCC(=O)O)c3ccccc3C2(C)C)c2cccc3cccc1c32 [Dye 6] | 0.005 | 75,000 | 672 |  | 
4 | CCn1c(=CC=CC=CC2=[N+](CCCCCC(=O)O)c3cc4c(cc3C2(C)C)-c2ccccc2C4(C)C)c2cccc3cccc1c32 [Dye 18] | 0.005 | 74,000 | 680 |  | 
5 | Cn1c(=CC=CC2=Nc3c(ccc[n+]3CCCCCC(=O)O)C2(C)C)c2cccc3cccc1c32 [Dye 12] | 0.002 | 53,000 | 676 |  | 

Further lines, with some results ahead:

Row | Quantum Yield(Φ) [1] | εmax [1] | λabs [1] [nm] | maximum absorption wavelength [1] | Structure (SMILES) | absorbs light in the range [2]
6 | 0.001 | 65,000 | 690 |  | Cn1c(=CC=CC2=[N+](CCCCCC(=O)O)c3ccc4sc5ccccc5c4c3C2(C)C)c2cccc3cccc1c32 [Dye 48] | 
7 | 0.007 | 42,000 | 600 |  | C[n+]1c(C=CC=c2c3cccc4cccc(c43)n2CCCCCC(=O)O)oc2c3ccccc3ccc21 [Dye 60] | 
8 | 0.002 | 24,000 | 630 |  | CC[n+]1c(C=CC=c2c3cccc4cccc(c43)n2CCCCCC(=O)O)sc2ccc3ccccc3c21 [Dye 61] | 
9 | 0.006 | 28,000 | 664 | above 650 nm | C[n+]1c(C=CC=c2c3cccc4cccc(c43)n2CCCCCC(=O)O)sc2ccccc21 [Dye 2] | 
10 | 0.001 | 68,000 | 692 | above 650 nm | Cn1c(=CC=CC2=[N+](CCCCCC(=O)O)c3c(ccc4ccccc34)C2(C)C)c2cccc3cccc1c32 [Dye 16] | 
